Results as given in patent US11693163B2, “Optical filter and imaging device” (AGC Inc., priority 2015, dated 2023).

Key:
[1] = Absorption characteristic of NIR dye in dichloromethane; assay type: physicochemical
Excerpt: The obtained NIR dyes were each dissolved in dichloromethane, and an ultraviolet-visible spectrophotometer (manufactured by Hitachi High Technologies Co., Ltd., U-4100 type) was used to measure each spectral transmittance curve, from which a maximum absorption wavelength λmax, a wavelength λ80 at which the transmittance becomes 80% on a shorter wavelength side than the maximum absorption wavelength with the transmittance at the maximum absorption wavelength set to 10%, a difference between the maximum absorption wavelength λmax and the wavelength λ80 (λmax−λ80), a maximum absorption constant εA in light of a wavelength range of 430 to 550 nm, a maximum absorption constant εB in light of a wavelength range of 670 to 730 nm, and a ratio of these (εB/εA) were calculated. Note that the U-4100 type was used for the measurement of spectral transmittance curves in each of the following examples.

[2] = Solubility of NIR dye to resin solution; assay type: physicochemical; details: stirred two hours; for Solubility evaluation, Polyimide resin: 12.5 mass % C3450 in cyclohexanone:NMP=1:1, 50° C.; for Solubility evaluation, Polyester resin: 12.5 mass % OKP850 in cyclohexanone:NMP=1:1, 50° C.; for Solubility evaluation, Polyethersulfone resin: 12.5 mass % PES4800 in cyclohexanone:NMP=1:1, 50° C.
Method: Results are illustrated in Table 8 together with the kinds of the used dyes. Note that the temperature of the resin solution in the solubility test was set to 50° C., the NIR dye was put into the resin solution, the resultant resin solution was stirred for two hours, and the presence/absence of occurrence of the dissolution was observed visually. Evaluation criteria of the solubility are as follows.
A: Solubility of 9 mass % or more
B: Solubility of 7 mass % or more and less than 9 mass %
C: Solubility of 5 mass % or more and less than 7 mass %
D: Solubility of 3 mass % or more and less than 5 mass %
E: Solubility of 1 mass % or more and less than 3 mass %
F: Solubility of less than 1 mass %

| Compound | εA (maximum absorption constant, 430 to 550 nm) [1] | εB (maximum absorption constant, 670 to 730 nm) [1] | εB/εA [1] | λ80 (wavelength of 80% transmittance, shorter side of λmax, transmittance at λmax set to 10%) [1] | λmax (maximum absorption wavelength) [1] | λmax-λ80 [1] | Solubility evaluation, Polyimide resin [2] | Solubility evaluation, Polyester resin [2] | Solubility evaluation, Polyethersulfone resin [2] |
| --- | --- | --- | --- | --- | --- | --- | --- | --- | --- |
| CCCCC(CC)COC(=O)Nc1cc2c(cc1C1=C([O-])C(=c3cc4c(cc3NC(=O)OCC(CC)CCCC)=[N+](C)C(C)C4(C)C)C1=O)C(C)(C)C(C)N2C (stereo not drawn) [A1-4] | 0.019 | 1 | 53.5 | 632 nm | 690 nm | 58 nm | A (9 mass % or more) | A (9 mass % or more) | A (9 mass % or more) |
| CCCCCOC(=O)Nc1cc2c(cc1C1=C([O-])C(=c3cc4c(cc3NC(=O)OCCCCC)=[N+](C(C)(CC)CC)C(C)C4(C)C)C1=O)C(C)(C)C(C)N2C(C)(CC)CC (stereo not drawn) [A1-13] | 0.019 | 1 | 51.8 | 659 nm | 707 nm | 48 nm | A (9 mass % or more) | A (9 mass % or more) | A (9 mass % or more) |
| CCCOC(=O)Nc1cc2c(cc1C1=C([O-])C(=c3cc4c(cc3NC(=O)OCCC)=[N+](C(C)(C)CC)C(C)C4(C)C)C1=O)C(C)(C)C(C)N2C(C)(C)CC (stereo not drawn) [A1-10] | 0.018 | 1 | 55.5 | 658 nm | 705 nm | 47 nm | A (9 mass % or more) | A (9 mass % or more) | A (9 mass % or more) |
| CCCc1ccc(OC(=O)Nc2cc3c(cc2C2=C([O-])C(=c4cc5c(cc4NC(=O)Oc4ccc(CCC)cc4)=[N+](C(C)C)C(C)C5(C)C)C2=O)C(C)(C)C(C)N3C(C)C)cc1 (stereo not drawn) [A1-9] | 0.013 | 1 | 75.7 | 651 nm | 700 nm | 49 nm | E (1 mass % or more and less than 3 mass %) | E (1 mass % or more and less than 3 mass %) | E (1 mass % or more and less than 3 mass %) |
| CCCCCOC(=O)Nc1cc2c(cc1C1=C([O-])C(=c3cc4c(cc3NC(=O)OCCCCC)=[N+](C(C)C)C(C)C4(C)C)C1=O)C(C)(C)C(C)N2C(C)C (stereo not drawn) [A1-7] | 0.016 | 1 | 61.8 | 647 nm | 697 nm | 50 nm | A (9 mass % or more) | A (9 mass % or more) | A (9 mass % or more) |
| CCCOC(=O)Nc1cc2c(cc1C1=C([O-])C(=c3cc4c(cc3NC(=O)OCCC)=[N+](C)C(C)C4(C)C)C1=O)C(C)(C)C(C)N2C (stereo not drawn) [A1-2] | 0.017 | 1 | 59.0 | 633 nm | 691 nm | 58 nm | A (9 mass % or more) | A (9 mass % or more) | A (9 mass % or more) |
| CCCCC(CC)C(=O)Nc1cc2c(cc1C1=C([O-])C(=c3cc4c(cc3NC(=O)C(CC)CCCC)=[N+](C(C)C)C(C)C4(C)C)C1=O)C(C)(C)C(C)N2C(C)C (stereo not drawn) [A3, reference compound] | 0.020 | 1 | 49.1 | 656 nm | 706 nm | 50 nm | – | – | – |
| CCCCCOC(=O)Nc1cc2c(cc1C1=C([O-])C(=c3cc4c(cc3NC(=O)OCCCCC)=[N+](C)C(C)C4(C)C)C1=O)C(C)(C)C(C)N2C (stereo not drawn) [A1-3] | 0.013 | 1 | 77.5 | 633 nm | 691 nm | 58 nm | A (9 mass % or more) | A (9 mass % or more) | A (9 mass % or more) |
| CCCCCCCOc1ccc(C(=O)Nc2cc3c(cc2C2=C([O-])C(=c4cc5c(cc4NC(=O)c4ccc(OCCCCCCC)cc4)=[N+](C(C)C)C(C)C5(C)C)C2=O)C(C)(C)C(C)N3C(C)C)cc1 (stereo not drawn) [A4, reference compound] | 0.029 | 1 | 34.7 | 659 nm | 710 nm | 51 nm | – | – | – |
| CCCOC(=O)Nc1cc2c(cc1C1=C([O-])C(=c3cc4c(cc3NC(=O)OCCC)=[N+](C(C)C)C(C)C4(C)C)C1=O)C(C)(C)C(C)N2C(C)C (stereo not drawn) [A1-6] | 0.016 | 1 | 63.9 | 647 nm | 697 nm | 50 nm | A (9 mass % or more) | A (9 mass % or more) | A (9 mass % or more) |
| CCCCCOC(=O)Nc1cc2c(cc1C1=C([O-])C(=c3cc4c(cc3NC(=O)OCCCCC)=[N+](C(C)(C)CC)C(C)C4(C)C)C1=O)C(C)(C)C(C)N2C(C)(C)CC (stereo not drawn) [A1-11] | 0.016 | 1 | 61.3 | 658 nm | 705 nm | 47 nm | A (9 mass % or more) | A (9 mass % or more) | A (9 mass % or more) |
| CCCOC(=O)Nc1cc2c(cc1C1=C([O-])C(=c3cc4c(cc3NC(=O)OCCC)=[N+](C(C)(CC)CC)C(C)C4(C)C)C1=O)C(C)(C)C(C)N2C(C)(CC)CC (stereo not drawn) [A1-12] | 0.017 | 1 | 59.7 | 656 nm | 707 nm | 51 nm | A (9 mass % or more) | A (9 mass % or more) | A (9 mass % or more) |
| CCCc1ccc(OC(=O)Nc2cc3c(cc2C2=C([O-])C(=c4cc5c(cc4NC(=O)Oc4ccc(CCC)cc4)=[N+](C)C(C)C5(C)C)C2=O)C(C)(C)C(C)N3C)cc1 (stereo not drawn) [A1-5] | 0.016 | 1 | 63.9 | 636 nm | 693 nm | 57 nm | F (Less than 1 mass %) | F (Less than 1 mass %) | F (Less than 1 mass %) |
